≈ marks a conversion by molar mass, not a printed value.
Assays:
Assay in all cases: Broth dilution MIC
Type in all cases: cell-based
CNS GC 4538 = conditions: Mueller-Hinton broth, 18 hours at 35° C.
Protocol: (§1) The in vitro antibacterial activity of AA-896-A1, AA-896-A2, AA-896-A3, AA-896-A4, AA-896-A5, AA-896-B1, AA-896-B2, AA-896-B3, AA-896-B4, AA-896-B5, AA-896-B6, AA-896-B7, AA-896-C1, AA-896-C2, AA-896-C3, AA-896-C4, AA-896-D1, AA896-D2 and AA-896-D3 is determined against a spectrum of Gram-positive and Gram-negative bacteria by a standard broth dilution method. Serial dilution of the compounds are made in Mueller-Hinton broth and inoculated with a bacterial suspension. The lowest concentration of compound that inhibited the growth of a bacterial strain after 18 hours of incubation at 35° C. is reported as the minimal inhibitory concentration (MIC) for that strain.

S. aureus GC 2216 = conditions: 18 hours at 35° C.; for Antimicrobial Activity (MIC): Mueller-Hinton broth
Protocol: as §1

K. pneumoniae GC 4534 = conditions: 18 hours at 35° C.; for Antimicrobial Activity (MIC): Mueller-Hinton broth
Protocol: as §1

E. faecalis GC 4555 = conditions: 18 hours at 35° C.; for Antimicrobial Activity (MIC): Mueller-Hinton broth
Protocol: as §1

E. cloacae GC 3783 = conditions: 18 hours at 35° C.; for Antimicrobial Activity (MIC): Mueller-Hinton broth
Protocol: as §1

E. coli GC 3226 = conditions: 18 hours at 35° C.; for Antimicrobial Activity (MIC): Mueller-Hinton broth
Protocol: as §1

M. morganii GC 4531 = conditions: 18 hours at 35° C.; for Antimicrobial Activity (MIC): Mueller-Hinton broth
Protocol: as §1

S. marcescens GC 4077 = conditions: 18 hours at 35° C.; for Antimicrobial Activity (MIC): Mueller-Hinton broth
Protocol: as §1

CNS GC 4537 = conditions: Mueller-Hinton broth, 18 hours at 35° C.
Protocol: as §1

E. coli GC 4560 = conditions: 18 hours at 35° C.; for Antimicrobial Activity (MIC): Mueller-Hinton broth
Protocol: as §1

E. coli GC 4559 = conditions: 18 hours at 35° C.; for Antimicrobial Activity (MIC): Mueller-Hinton broth
Protocol: as §1

S. aureus GC 1131 = conditions: 18 hours at 35° C.; for Antimicrobial Activity (MIC): Mueller-Hinton broth
Protocol: as §1

P. aeruginosa GC 4532 = conditions: 18 hours at 35° C.; for Antimicrobial Activity (MIC): Mueller-Hinton broth
Protocol: as §1

S. aureus GC 4536 = conditions: 18 hours at 35° C.; for Antimicrobial Activity (MIC): Mueller-Hinton broth
Protocol: as §1

CNS GC 4547 = conditions: Mueller-Hinton broth, 18 hours at 35° C.
Protocol: as §1

E. faecalis GC 2242 = conditions: 18 hours at 35° C.; for Antimicrobial Activity (MIC): Mueller-Hinton broth
Protocol: as §1

E. coli GC 2203 = conditions: 18 hours at 35° C.; for Antimicrobial Activity (MIC): Mueller-Hinton broth
Protocol: as §1

P. aeruginosa GC 2214 = conditions: 18 hours at 35° C.; for Antimicrobial Activity (MIC): Mueller-Hinton broth
Protocol: as §1

E. faecalis GC 842 = conditions: 18 hours at 35° C.; for Antimicrobial Activity (MIC): Mueller-Hinton broth
Protocol: as §1

P. rettgeri GC 4530 = conditions: 18 hours at 35° C.; for Antimicrobial Activity (MIC): Mueller-Hinton broth
Protocol: as §1

[1] = read-out: Antimicrobial Activity (MIC)

Antimicrobial Activity (MIC) (CNS GC 4538) [µg/mL]	Antimicrobial Activity (MIC) (S. aureus GC 2216) [µg/mL]	Antimicrobial Activity (MIC) (K. pneumoniae GC 4534) [µg/mL]	Antimicrobial Activity (MIC) (E. faecalis GC 4555) [µg/mL]	Antimicrobial Activity (MIC) (E. cloacae GC 3783) [µg/mL]	Antimicrobial Activity (MIC) (E. coli GC 3226) [µg/mL]	Antimicrobial Activity (MIC) (M. morganii GC 4531) [µg/mL]	Antimicrobial Activity (MIC) (S. marcescens GC 4077) [µg/mL]	Antimicrobial Activity (MIC) (CNS GC 4537) [µg/mL]	Antimicrobial Activity (MIC) (E. coli GC 4560) [µg/mL]	Antimicrobial Activity (MIC) (E. coli GC 4559) [µg/mL]	Antimicrobial Activity (MIC) (S. aureus GC 1131) [µg/mL]	Antimicrobial Activity (MIC) (P. aeruginosa GC 4532) [µg/mL]	Antimicrobial Activity (MIC) (S. aureus GC 4536) [µg/mL]	Antimicrobial Activity (MIC) (CNS GC 4547) [µg/mL]	Antimicrobial Activity (MIC) (E. faecalis GC 2242) [µg/mL]	Antimicrobial Activity (MIC) (E. coli GC 2203) [µg/mL]	Antimicrobial Activity (MIC) (P. aeruginosa GC 2214) [µg/mL]	Antimicrobial Activity (MIC) (E. faecalis GC 842) [µg/mL]	Antimicrobial Activity (MIC) (P. rettgeri GC 4530) [µg/mL]	Compound	also measured
>32	>32	>32	>32	8	32	>32	>32	>32	0.5	32	>32	32	>32	>32	>32	16	16	>32	>32	CC(C)C(NC(=O)NC(C(=O)NC(C(=O)NCCCNC(C(=O)O)C(OC1CC(O)C(CN)O1)C1OC(n2ccc(=O)[nH]c2=O)C(O)C1O)C(O)C(C)C)C1CCNC(=N)N1)C(=O)O [AA-896-C3, 5-O-[5-Amino-2,5-dideoxy-β-D-ribofuranosyl]-6-[[3-[2-[2-[[(1-carboxy-2-methylpropyl)-carbamoyl]amino]-2-(hexahydro-2-iminopyrimidin-4-yl)acetamido]-3-hydroxy-4-methyl-pentanamido]propyl]amino]-1,6-dideoxy-1-(3,4-dihydro-2,4-dioxopyrimidin-1(2H)-yl)-β-D-heptofuranuronic acid]	–
–	–	–	–	–	–	–	–	–	–	–	–	–	–	–	–	–	–	–	–	CC(C)C(NC(=O)NC(C(=O)NC(C(=O)NCCCNC(C(=O)O)C(O)C1OC(n2ccc(=O)[nH]c2=O)C(O)C1O)C(O)C(C)C)C1CCNC(=N)N1)C(=O)O [AA-896-C4, 6-[[3-[2-[2-[[(1-Carboxy-2-methylpropyl)carbamoyl]amino]-2-(hexahydro-2-iminopyrimidin-4-yl)acetamido]-3-hydroxy-4-methylpentanamido]propyl]amino]-1,6-dideoxy-1-(3,4-dihydro-2,4-dioxopyrimidin-1(2H)-yl)-β-D-heptofuranuronic acid]	MIC (CNS GC 4538; [1]): > 32 µg/mL; MIC (S. aureus GC 2216; Staphylococcus aureus, GC2216, Mueller-Hinton broth, read-out: Antimicrobial Activity (MIC)): > 32 µg/mL; MIC (K. pneumoniae GC 4534; Klebsiella pneumoniae, GC4534, Mueller-Hinton broth, read-out: Antimicrobial Activity (MIC)): > 32 µg/mL; MIC (E. faecalis GC 4555; Enterococcus faecalis, GC4555, Mueller-Hinton broth, read-out: Antimicrobial Activity (MIC)): > 32 µg/mL; MIC (E. cloacae GC 3783; Enterobacter cloacae, GC3783, Mueller-Hinton broth, read-out: Antimicrobial Activity (MIC)): > 32 µg/mL; MIC (E. coli GC 3226; Escherichia coli, GC3226, Mueller-Hinton broth, read-out: Antimicrobial Activity (MIC)): > 32 µg/mL; MIC (M. morganii GC 4531; Morganella morganii, GC4531, Mueller-Hinton broth, read-out: Antimicrobial Activity (MIC)): > 32 µg/mL; MIC (S. marcescens GC 4077; Serratia marcescens, GC4077, Mueller-Hinton broth, read-out: Antimicrobial Activity (MIC)): > 32 µg/mL; MIC (CNS GC 4537; [1]): > 32 µg/mL; MIC (E. coli GC 4560; Escherichia coli, GC4560, Mueller-Hinton broth, read-out: Antimicrobial Activity (MIC)): 4 µg/mL (≈ 4.99 µM); MIC (E. coli GC 4559; Escherichia coli, GC4559, Mueller-Hinton broth, read-out: Antimicrobial Activity (MIC)): > 32 µg/mL; MIC (S. aureus GC 1131; Staphylococcus aureus, GC1131, Mueller-Hinton broth, read-out: Antimicrobial Activity (MIC)): > 32 µg/mL; MIC (P. aeruginosa GC 4532; Pseudomonas aeruginosa, GC4532, Mueller-Hinton broth, read-out: Antimicrobial Activity (MIC)): 32 µg/mL (≈ 40 µM); MIC (S. aureus GC 4536; Staphylococcus aureus, GC4536, Mueller-Hinton broth, read-out: Antimicrobial Activity (MIC)): > 32 µg/mL; MIC (CNS GC 4547; [1]): > 32 µg/mL; MIC (E. faecalis GC 2242; Enterococcus faecalis, GC2242, Mueller-Hinton broth, read-out: Antimicrobial Activity (MIC)): > 32 µg/mL; MIC (E. coli GC 2203; Escherichia coli, GC2203, Mueller-Hinton broth, read-out: Antimicrobial Activity (MIC)): > 32 µg/mL; MIC (P. aeruginosa GC 2214; Pseudomonas aeruginosa, GC2214, Mueller-Hinton broth, read-out: Antimicrobial Activity (MIC)): 32 µg/mL (≈ 40 µM); MIC (E. faecalis GC 842; Enterococcus faecalis, GC842, Mueller-Hinton broth, read-out: Antimicrobial Activity (MIC)): > 32 µg/mL; MIC (P. rettgeri GC 4530; Providencia rettgeri, GC4530, Mueller-Hinton broth, read-out: Antimicrobial Activity (MIC)): > 32 µg/mL
>32	>32	>32	>32	32	32	>32	>32	>32	1	>32	>32	32	>32	>32	>32	>32	32	>32	>32	COC1C(OC(C(NCCCNC(=O)C(CC(C)C)NC(=O)C(NC(=O)NC(C(=O)O)C(C)C)C2CCNC(=N)N2)C(=O)O)C2OC(n3ccc(=O)[nH]c3=O)C(O)C2O)OC(CN)C1O [AA-896-D1, 5-O-[5-Amino-5-deoxy-2-O-methyl-β-D-ribofuranosyl]-6-[[3-[2-[2-[[(1-carboxy-2-methyl-propyl)carbamoyl]amino]-2-(hexahydro-2-iminopyrimidin-4-yl)acetamido]-4-methyl-pentanamido]propyl]amino]-1,6-dideoxy-1-(3,4-dihydro-2,4-dioxopyrimidin-1(2H)-yl)-β-D-heptofuranuronic acid]	–
>32	>32	>32	>32	>32	32	>32	>32	>32	0.25	>32	>32	>32	>32	>32	>32	32	32	>32	>32	CC(C)CC(NC(=O)C(NC(=O)NC(C(=O)O)C(C)C)C1CCNC(=N)N1)C(=O)NCCCNC(C(=O)O)C(OC1CC(O)C(CN)O1)C1OC(n2ccc(=O)[nH]c2=O)C(O)C1O [AA-896-D3, 5-O-[5-Amino-2,5-dideoxy-β-D-ribofuranosyl]-6-[[3-[2-[2-[[(1-carboxy-2-methylpropyl)-carbamoyl]amino]-2-(hexahydro-2-iminopyrimidin-4-yl)acetamido]-4-methylpentanamido]-propyl]amino]-1,6-dideoxy-1-(3,4-dihydro-2,4-dioxopyrimidin-1(2H)-yl)-β-D-heptofuran-uronic acid]	–

— patent US7078195B2, “Antibiotics AA-896” (Wyeth Holdings Corporation, priority 2001, dated 2006)
